# Values quoted from earlier work in patent US20110033536A1, “24-HOUR SUSTAINED-RELEASE METOCLOPRAMIDE” (POSIVISIONARY SOLUTIONS LLP, priority 2008, published 2011).
smiles,measurement,setting,value
CCN(CC)CCNC(=O)c1cc(Cl)c(N)cc1OC [metoclopramide],Plasma concentrations at which undesirable side effects (akathisia) are present,literature (Bateman 1979; Parlak 2005),above 100 nanograms per milliliter
same,Plasma concentrations related to extrapyramidal effects (akathisia),"relationship stated as determined, no own test",above 120 ng/ml
